Experimental data reported in ChEMBL document CHEMBL1268871, “Structure and functions of gamma-dodecalactone isolated from Antrodia camphorata for NK cell activation” (Bioorg Med Chem, 2010).
Calls of active or inactive are those of the source. The rule behind the calls is not given here.

Assays:
Homo sapiens [1] = species on record: Homo sapiens; experiment: Immunomodulatory activity in human PMNC assessed as induction of CD69 expression at 375 uM within 10 mins by FACS analysis; assay type: functional
PBMC [2] = experiment: Cellular uptake in human PBMC nucleus assessed per mg of protein after 2 hrs by GC analysis; assay type: ADME, cell-based
PBMC [3] = experiment: Cellular uptake in human PBMC residual solution after 2 hrs by GC analysis; assay type: ADME, cell-based
[4] = Immunomodulatory activity in human PMNC assessed as induction of CD69 expression at 20 ng/ml after 24 hrs by FACS analysis; assay type: functional
PBMC [5] = experiment: Cellular uptake in human PBMC nucleus residual solution after 10 mins by GC analysis; assay type: ADME, cell-based
PBMC [6] = experiment: Cellular uptake in human PBMC after 1 hr by GC analysis; assay type: ADME, cell-based
PBMC [7] = experiment: Cellular uptake in human PBMC nucleus assessed per mg of protein after 10 mins by GC analysis; assay type: ADME, cell-based
PBMC [8] = experiment: Cellular uptake in human PBMC nucleus assessed per mg of protein after 20 mins by GC analysis; assay type: ADME, cell-based
HepG2 = experiment: Immunomodulatory activity in human HepG2 cells assessed as induction of innate immunity-mediated cytotoxicity at 375 uM after 24 hrs by fluorescence microscopy; assay type: functional, cell-based
NK [9] = experiment: Immunomodulatory activity in human NK cells assessed as induction of CD69 gene expression at 375 uM after 4 hrs by RT-PCR analysis; assay type: functional, cell-based
[10] = Immunomodulatory activity in human PMNC assessed as induction of CD69 expression at 100 uM after 24 hrs by FACS analysis; assay type: functional
[11] = Immunomodulatory activity in human PMNC assessed as induction of GraB expression at 375 uM after 24 hrs by FITC-conjugated flow cytometry relative to control; assay type: functional
[12] = Cellular uptake in human NK cells at 500 uM after 20 mins by GC analysis; assay type: ADME, cell-based
[13] = Immunomodulatory activity in human PMNC assessed as induction of CD69 expression at 375 uM after 24 hrs by FACS analysis; assay type: functional
PBMC [14] = experiment: Cellular uptake in human PBMC nucleus after 2 hrs by GC analysis; assay type: ADME, cell-based
PBMC [15] = experiment: Cellular uptake in human PBMC nucleus assessed per mg of protein after 30 mins by GC analysis; assay type: ADME, cell-based; conditions: 0.5 h
NK [16] = experiment: Immunomodulatory activity in human NK cells assessed as induction of TNF gene expression at 375 uM after 4 hrs by RT-PCR analysis; assay type: functional, cell-based
PBMC [17] = experiment: Cellular uptake in human PBMC residual solution after 3 hrs by GC analysis; assay type: ADME, cell-based
[18] = Metabolic stability in human NK cells assessed as conversion to 4-hydroxydodecanoic acid at 375 uM after 45 mins by RP-HPLC analysis; assay type: ADME, cell-based; conditions: 0.75 h
NK [19] = experiment: Immunomodulatory activity in human NK cells assessed as induction of IL2 gene expression at 375 uM after 4 hrs by RT-PCR analysis; assay type: functional, cell-based
PBMC [20] = experiment: Cellular uptake in human PBMC pellet solution after 2 hrs by GC analysis; assay type: ADME, cell-based
PBMC [21] = experiment: Cellular uptake in human PBMC pellet solution after 30 mins by GC analysis; assay type: ADME, cell-based; conditions: 0.5 h
PBMC [22] = experiment: Cellular uptake in human PBMC nucleus residual solution after 2 hrs by GC analysis; assay type: ADME, cell-based
PBMC [23] = experiment: Cellular uptake in human PBMC after 10 mins by GC analysis; assay type: ADME, cell-based
PBMC [24] = experiment: Cellular uptake in human PBMC pellet solution after 3 hrs by GC analysis; assay type: ADME, cell-based
PBMC [25] = experiment: Cellular uptake in human PBMC nucleus residual solution after 30 mins by GC analysis; assay type: ADME, cell-based; conditions: 0.5 h
PBMC [26] = experiment: Cellular uptake in human PBMC after 30 mins by GC analysis; assay type: ADME, cell-based; conditions: 0.5 h
NK [27] = experiment: Immunomodulatory activity in human NK cells assessed as induction of IFNG gene expression at 375 uM after 4 hrs by RT-PCR analysis; assay type: functional, cell-based
Homo sapiens [28] = species on record: Homo sapiens; experiment: Immunomodulatory activity in human PMNC assessed as induction of CD69 expression after 24 hrs by FITC-conjugated flow cytometry; assay type: functional
PBMC [29] = experiment: Cellular uptake in human PBMC nucleus after 30 mins by GC analysis; assay type: ADME, cell-based; conditions: 0.5 h
PBMC [30] = experiment: Cellular uptake in human PBMC nucleus assessed per mg of protein after 1 hr by GC analysis; assay type: ADME, cell-based
PBMC [31] = experiment: Cellular uptake in human PBMC nucleus residual solution after 20 mins by GC analysis; assay type: ADME, cell-based
PBMC [32] = experiment: Cellular uptake in human PBMC after 2 hrs by GC analysis; assay type: ADME, cell-based
NK [33] = experiment: Immunomodulatory activity in human NK cells assessed as induction of FASLG gene expression at 375 uM after 4 hrs by RT-PCR analysis; assay type: functional, cell-based
PBMC [34] = experiment: Cellular uptake in human PBMC nucleus after 20 mins by GC analysis; assay type: ADME, cell-based
PBMC [35] = experiment: Cellular uptake in human PBMC pellet solution after 10 mins by GC analysis; assay type: ADME, cell-based
[36] = Cytotoxicity human PMNC up to 375 uM after 48 hrs by WST assay
PBMC [37] = experiment: Cellular uptake in human PBMC pellet solution after 1 hr by GC analysis; assay type: ADME, cell-based
PBMC [38] = experiment: Cellular uptake in human PBMC nucleus residual solution after 1 hr by GC analysis; assay type: ADME, cell-based
[39] = Immunomodulatory activity in human PMNC assessed as induction of FasL expression at 375 uM after 24 hrs by FITC-conjugated flow cytometry relative to control; assay type: functional
PBMC [40] = experiment: Cellular uptake in human PBMC pellet solution after 20 mins by GC analysis; assay type: ADME, cell-based
PBMC [41] = experiment: Cellular uptake in human PBMC residual solution after 1 hr by GC analysis; assay type: ADME, cell-based
PBMC [42] = experiment: Cellular uptake in human PBMC residual solution after 10 mins by GC analysis; assay type: ADME, cell-based
PBMC [43] = experiment: Cellular uptake in human PBMC nucleus after 10 mins by GC analysis; assay type: ADME, cell-based
PBMC [44] = experiment: Cellular uptake in human PBMC residual solution after 30 mins by GC analysis; assay type: ADME, cell-based; conditions: 0.5 h
PBMC [45] = experiment: Cellular uptake in human PBMC after 3 hrs by GC analysis; assay type: ADME, cell-based
NK [46] = experiment: Immunomodulatory activity in human NK cells assessed as induction of GZMB gene expression at 375 uM after 4 hrs by RT-PCR analysis; assay type: functional, cell-based
[47] = Immunomodulatory activity in human PMNC assessed as induction of CD69 expression at 200 uM after 24 hrs by FACS analysis; assay type: functional
PBMC [48] = experiment: Cellular uptake in human PBMC nucleus after 1 hr by GC analysis; assay type: ADME, cell-based
PBMC [49] = experiment: Cellular uptake in human PBMC after 20 mins by GC analysis; assay type: ADME, cell-based
PBMC [50] = experiment: Cellular uptake in human PBMC residual solution after 20 mins by GC analysis; assay type: ADME, cell-based
[51] = Metabolic stability in human NK cells assessed as formation of 4-hydroxydodecanoic acid at 375 uM after 3 hrs by RP-HPLC analysis; assay type: ADME, cell-based

Question: With CCCCCCCC[C@@H](O)CCC(=O)O as the compound, how does the Activity (Homo sapiens [1]) read?
Answer: The Activity was “Active”.

Question: For CCCCCCCC[C@H]1CCC(=O)O1, which Drug uptake (PBMC [2]) is on record?
Answer: Its Drug uptake is 0 ng.

Question: And the Drug uptake (PBMC [3])?
Answer: The Drug uptake was 0.009 µg.

Question: And the Activity [4]?
Answer: The Activity was 33.65%.

Question: What about the Drug uptake (PBMC [5]) of the same compound?
Answer: Its Drug uptake is 8.44 ng.

Question: What about the Drug uptake (PBMC [6]) of the same compound?
Answer: Its Drug uptake is 0.017 µg.

Question: What about the Drug uptake (PBMC [7]) of the same compound?
Answer: The Drug uptake was 0.011 ng.

Question: What about the Drug uptake (PBMC [8]) of the same compound?
Answer: Its Drug uptake is 0.013 ng.

Question: And the Activity (HepG2)?
Answer: Its Activity is “Active”.

Question: What about the Activity (NK [9]) of the same compound?
Answer: Its Activity is “Active”.

Question: What about the Activity [10] of the same compound?
Answer: The Activity was 10.51%.

Question: What about the “fold change (FC)” value [11] of the same compound?
Answer: The value was 1.5.

Question: What about the Drug uptake [12] of the same compound?
Answer: Its Drug uptake is 18.62 ng.

Question: And the Activity [13]?
Answer: Its Activity is 19.37%.

Question: And the Drug uptake (PBMC [14])?
Answer: The Drug uptake was 0.658 mg/mL.

Question: And the Drug uptake (PBMC [15])?
Answer: Its Drug uptake is 0.016 ng.

Question: What about the Activity (NK [16]) of the same compound?
Answer: The Activity was “Active”.

Question: And the Drug uptake (PBMC [17])?
Answer: Its Drug uptake is 0 µg.

Question: And the Activity [18]?
Answer: Its Activity is 29%.

Question: And the Activity (NK [19])?
Answer: The Activity was “Active”.

Question: What about the Drug uptake (PBMC [20]) of the same compound?
Answer: The Drug uptake was 0 µg.

Question: And the Drug uptake (PBMC [21])?
Answer: Its Drug uptake is 0.008 µg.

Question: And the Drug uptake (PBMC [22])?
Answer: The Drug uptake was 0 ng.

Question: What about the Drug uptake (PBMC [23]) of the same compound?
Answer: The Drug uptake was 0.02 µg.

Question: And the Drug uptake (PBMC [24])?
Answer: Its Drug uptake is 0 µg.

Question: And the Drug uptake (PBMC [25])?
Answer: Its Drug uptake is 9.95 ng.

Question: What about the Drug uptake (PBMC [26]) of the same compound?
Answer: The Drug uptake was 0.027 µg.

Question: What about the Activity (NK [27]) of the same compound?
Answer: The Activity was “Active”.

Question: What about the Activity (Homo sapiens [28]) of the same compound?
Answer: The Activity was “Dose-dependent effect”.

Question: And the Drug uptake (PBMC [29])?
Answer: The Drug uptake was 0.618 mg/mL.

Question: And the Drug uptake (PBMC [30])?
Answer: The Drug uptake was 0.001 ng.

Question: And the Drug uptake (PBMC [31])?
Answer: Its Drug uptake is 9.95 ng.

Question: What about the Drug uptake (PBMC [32]) of the same compound?
Answer: Its Drug uptake is 0.009 µg.

Question: What about the Activity (NK [33]) of the same compound?
Answer: Its Activity is “Active”.

Question: What about the Drug uptake (PBMC [34]) of the same compound?
Answer: The Drug uptake was 0.774 mg/mL.

Question: And the Drug uptake (PBMC [35])?
Answer: The Drug uptake was 0 µg.

Question: And the Activity [36]?
Answer: The Activity was “Non-toxic”.

Question: What about the Drug uptake (PBMC [37]) of the same compound?
Answer: Its Drug uptake is 0.007 µg.

Question: What about the Drug uptake (PBMC [38]) of the same compound?
Answer: Its Drug uptake is 8.4 ng.

Question: And the “fold change (FC)” value [39]?
Answer: Its value is 2.5.

Question: What about the Drug uptake (PBMC [40]) of the same compound?
Answer: Its Drug uptake is 0.007 µg.

Question: What about the Drug uptake (PBMC [41]) of the same compound?
Answer: Its Drug uptake is 0.01 µg.

Question: And the Drug uptake (PBMC [42])?
Answer: The Drug uptake was 0.02 µg.

Question: What about the Drug uptake (PBMC [43]) of the same compound?
Answer: Its Drug uptake is 0.791 mg/mL.

Question: What about the Drug uptake (PBMC [44]) of the same compound?
Answer: Its Drug uptake is 0.019 µg.

Question: And the Drug uptake (PBMC [45])?
Answer: The Drug uptake was 0 µg.

Question: And the Activity (NK [46])?
Answer: Its Activity is “Active”.

Question: And the Activity [47]?
Answer: The Activity was 13.58%.

Question: What about the Drug uptake (PBMC [48]) of the same compound?
Answer: The Drug uptake was 0.9 mg/mL.

Question: What about the Drug uptake (PBMC [49]) of the same compound?
Answer: Its Drug uptake is 0.022 µg.

Question: What about the Drug uptake (PBMC [50]) of the same compound?
Answer: Its Drug uptake is 0.015 µg.

Question: Which Activity (Homo sapiens [1]) does the source give for CCCCCCCC[C@H](O)CCC(=O)O here?
Answer: Its Activity is “Active”.

Question: With CCCCCCCCC(O)CCC(=O)O (centres undefined) as the compound, how does the Stability [51] read?
Answer: The Stability was “Unstable”.

Question: What about the Activity (Homo sapiens [1]) of the same compound?
Answer: Its Activity is “Active”.
